Experimental data taken from patent publication US10329309B2, “3-(3H-imidazo[4,5-B]pyridin-2-yl)-1H-pyrazolo[4,3-B]pyridines and therapeutic uses thereof” (Samumed, LLC, priority 2015, dated 2019).

Legend:
Assay type in all cases: cell-based
[1] = system: Wnt activity (Sp5-Luc reporter, SW480 colon carcinoma cells); assay: Screening assay for Wnt activity: Sp5-Luc reporter gene assay in SW480 cells; details: Homo sapiens; for EC50: overnight incubation, 10-point dose-response from 10 μM; for inhibition at 10 µM: 10 μM compound, read-out: percent inhibition at 10 μM (given for EC50 of >10 μM)
In short: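 SW480 cells stably carrying Sp5-Luc reporter (eight TCF/LEF sites) plated at 4,000/well in 1% FBS medium with compound (10-point 1:3 series from 10 μM, 0.1% DMSO) overnight at 37 °C. BrightGlo luminescence normalized to DMSO; EC50 by four-parameter fit, else % inhibition at 10 μM.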

SW480 colon cancer cells = assay: Cell viability assay (CellTiter-Blue), four days; details: Homo sapiens, 96 h; for EC50: CellTiter-Blue cell viability; for inhibition at 10 µM: read-out: percent inhibition at 10 μM (given for EC50 of >10 μM)
In short: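 SW480 cells (~2×10^3 per well) were exposed to compound for four days at 37 °C/5% CO2, using 8-point 1:3 dilutions from 10 μM to 0.0045 μM in duplicate. Viability was read by resazurin reduction (CellTiter-Blue, ~3 h, Ex 560/Em 590 nm). EC50 came from non-linear regression; above 10 μM, percent inhibition at 10 μM is given.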

[2] = system: primary human fibroblasts derived from IPF patients (LL29 cells), α-smooth muscle actin (αSMA); assay: Inhibition of the fibrotic process: TGF-β1-treated primary human fibroblasts from IPF patients, αSMA staining; details: Fibroblast, 96 h, 4 days; for EC50: LL29 fibroblasts from IPF patients, TGF-β1 20 ng/mL, inhibition of fibrotic process; for inhibition at 10 µM: LL29 fibroblasts, TGF-β1 treated, read-out: percent inhibition at 10 μM (given for EC50 of >10 μM)
In short: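 LL29 cells plated in F12 with 1% FBS, compounds added as 11-point 1:2 series (10 μM to 1.87 nM, 0.1% DMSO), then TGF-β1 20 ng/mL; 4 days at 37 °C. Fixed, αSMA immunostained, imaged; SYTOX-positive cells excluded. % αSMA-positive cells normalized to TGF-β1 wells; EC50 by non-linear regression, or % inhibition at 10 μM.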

EC50 [1] | EC50 (SW480 colon cancer cells) | Structure (SMILES) | EC50 [2] | inhibition at 10 µM [1] | inhibition at 10 µM (SW480 colon cancer cells) | inhibition at 10 µM [2]
4.06 µM | 5.85 µM | CN1CCN(c2ccnc3[nH]c(-c4n[nH]c5ccc(-c6cncc(OC7CCCCC7)c6)nc45)nc23)CC1 [Compound 639, 5-(5-(Cyclohexyloxy)pyridin-3-yl)-3-(7-(4-methylpiperazin-1-yl)-3H-imidazo[4,5-b]pyridin-2-yl)-1H-pyrazolo[4,3-b]pyridine] | 3.27 µM |  |  | 
> 10 µM | > 10 µM | Cn1cc(-c2ccc3[nH]nc(-c4nc5c(-c6cccc(F)c6)ccnc5[nH]4)c3n2)cn1 [Compound 508, 3-(7-(3-fluorophenyl)-3H-imidazo[4,5-b]pyridin-2-yl)-5-(1-methyl-1H-pyrazol-4-yl)-1H-pyrazolo[4,3-b]pyridine] | > 10 µM | 41% | 0% | 8.1%
> 10 µM | > 10 µM | Cc1cn(-c2ccnc3[nH]c(-c4n[nH]c5ccc(-c6cncc(NC(=O)C(C)(C)C)c6)nc45)nc23)cn1 [Compound 204, N-(5-(3-(7-(4-methyl-1H-imidazol-1-yl)-3H-imidazo[4,5-b]pyridin-2-yl)-1H-pyrazolo[4,3-b]pyridin-5-yl)pyridin-3-yl)pivalamide] | > 10 µM | 12.2% | 0% | 38.8%
> 10 µM | > 10 µM | O=C(Nc1cncc(-c2ccc3[nH]nc(-c4nc5cccnc5[nH]4)c3n2)c1)C1CCCCC1 [Compound 275, N-(5-(3-(3H-Imidazo[4,5-b]pyridin-2-yl)-1H-pyrazolo[4,3-b]pyridin-5-yl)pyridin-3-yl)cyclohexanecarboxamide] | 3.96 µM | 3.1% | 2.6% | 

The remaining lines, values behind:

Structure (SMILES) | EC50 [1] | EC50 (SW480 colon cancer cells) | EC50 [2] | inhibition at 10 µM [1] | inhibition at 10 µM (SW480 colon cancer cells) | inhibition at 10 µM [2]
CN(C)c1cncc(-c2ccc3[nH]nc(-c4nc5c(N6CCCCC6)ccnc5[nH]4)c3n2)c1 [Compound 175, N,N-dimethyl-5-(3-(7-(piperidin-1-yl)-3H-imidazo[4,5-b]pyridin-2-yl)-1H-pyrazolo [4,3-b]pyridin-5-yl)pyridin-3-amine] | > 10 µM | > 10 µM | 2.53 µM | 0% | 13.6% | 
O=C(Nc1cncc(-c2ccc3[nH]nc(-c4nc5c(-c6ccncc6)ccnc5[nH]4)c3n2)c1)C1CCCCC1 [Compound 135, N-(5-(3-(7-(pyridin-4-yl)-3H-imidazo[4,5-b]pyridin-2-yl)-1H-pyrazolo[4,3-b]pyridin-5-yl)pyridin-3-yl)cyclohexanecarboxamide] | > 10 µM | > 10 µM | > 10 µM | 10.4% | 3.8% | 0%
